# Data reported in patent US10221163B2 (priority 2015, dated 2019).
# Where two headings read alike, the source gives them in different places.
# Legend:
# IMP-1 = IMP-1 (Serratia marcescens, UniProt P52699); assay: biochemical; assay type: biochemical; conditions: fluorescence assay, CCF2-FA substrate, 2 pM enzyme, 2 hours at 25° C.; read-out: IMP-1 IC50
# How it was run: (§1)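 Inhibitor was mixed with the metallo-β-lactamase and CCF2-FA. After 2 hours at 25° C, fluorescence of the coumarin–fluorescein cephalosporin substrate was read. IC50 was calculated with a 4-parameter fit.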
# NDM-1 = NDM-1 (Klebsiella pneumoniae, UniProt C7C422); assay: biochemical; assay type: biochemical; conditions: fluorescence assay, CCF2-FA substrate, 1 pM enzyme, 2 hours at 25° C.; read-out: NDM-1 IC50
# NDM-1, sequence (C7C422 whole entry, looked up, species assumed): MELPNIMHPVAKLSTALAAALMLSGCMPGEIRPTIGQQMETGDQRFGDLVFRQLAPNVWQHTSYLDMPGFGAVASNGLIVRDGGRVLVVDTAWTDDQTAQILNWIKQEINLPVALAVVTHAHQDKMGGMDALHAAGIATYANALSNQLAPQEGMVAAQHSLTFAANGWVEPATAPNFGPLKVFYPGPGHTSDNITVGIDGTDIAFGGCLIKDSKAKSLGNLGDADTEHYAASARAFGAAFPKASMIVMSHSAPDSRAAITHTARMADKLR
# How it was run: as §1
# [1] = test system: Pseudomonas aeruginosa MB9798 vs MB9799
# How it was run: (§2)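 Microbroth MIC tests in PAO1-background strains with fixed imipenem and/or ceftazidime, usually at the CLSI breakpoint, plus fixed class A/C β-lactamase inhibitor against AmpC. MBL inhibitor titrated; concentration restoring susceptibility recorded and compared as fold difference between efflux+ MB9798 and efflux− MB9799.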
# [2] = test system: Pseudomonas aeruginosa efflux− (MB9799), IMP-1; assay type: cell-based; conditions: C, D serine β-lactamase inhibitor closely related to relebactam; for P. aeruginosa expressing IMP-1, efflux − (MB9799) MITC95: concentration restoring susceptibility to imipenem at 2 μg/mL in the presence of a class A; for Concentration of metallo-β-lactamase inhibitor which restores susceptibility of efflux − (MB9799) strain to imipenem: imipenem at 2 μg/mL, in the presence of a class A
# How it was run: as §2
# [3] = test system: Serratia marcescens expressing IMP-1 (CL5741); assay type: cell-based; conditions: for Serratia marcescens MITC95: IMP-1 strain CL5741, with imipenem 1 μg/ml, 95% inhibition of growth; for Serratia marcescens expressing IMP-1 (CL5741) MITC95: with imipenem 1 μg/ml, 95% inhibition of bacterial growth
# How it was run: (§3)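 Colonies grown overnight on blood agar at 35° C were suspended in saline, diluted 1:100 into 1.1×CAMHB and dispensed. Imipenem was added to 1 μg/ml, then test compound. After 22 hours to 24 hours at 35° C, absorbance was recorded.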
# [4] = test system: Escherichia coli expressing NDM-1 (CLB30005, CLB30016); assay type: cell-based; conditions: with imipenem 1 μg/ml; for Escherichia coli MITC95: NDM-1 strain, 95% inhibition of growth; for Escherichia coli expressing NDM-1 (CLB30016) MITC95: 95% inhibition of bacterial growth
# How it was run: as §3
# [5] = test system: Klebsiella pneumoniae expressing VIM-1 (IHMA599644); assay type: cell-based; conditions: for Klebsiella pneumoniae MITC95: VIM-1 strain IHMA599644, with imipenem 1 μg/ml, 95% inhibition of growth; for Klebsiella pneumoniae expressing VIM-1 (IHMA599644) MITC95: with imipenem 1 μg/ml, 95% inhibition of bacterial growth
# How it was run: as §3
# VIM-1 = VIM-1 (Pseudomonas aeruginosa (strain ATCC 15692 / DSM 22644 / CIP 104116 / JCM 14847 / LMG 12228 / 1C / PRS 101 / PAO1), UniProt A0A0F7KYQ8); assay: biochemical; conditions: CCF2-FA substrate, 30 pM enzyme, 2 hours at 25° C.
# How it was run: as §1
# [6] = test system: Pseudomonas aeruginosa efflux+ (MB9798), IMP-1; assay type: cell-based; design: Concentration of metallo-β-lactamase inhibitor which restores susceptibility of efflux + (MB9798) strain to imipenem: unit not given here; conditions: C, D serine β-lactamase inhibitor closely related to relebactam; for P. aeruginosa expressing IMP-1, efflux + (MB9798) MITC95: concentration restoring susceptibility to imipenem at 2 μg/mL in the presence of a class A; for Concentration of metallo-β-lactamase inhibitor which restores susceptibility of efflux + (MB9798) strain to imipenem: imipenem at 2 μg/mL, in the presence of a class A
# How it was run: as §2
# [7] = ratio MITC95 PA_9798/MITC95 PA_9799
# [8] = fold difference between efflux+ (MB9798) and efflux− (MB9799) strains, imipenem at 2 μg/mL
# [9] = fluorescence assay, read-out: VIM-1 IC50
# IMP-1, sequence (P52699 whole entry, looked up, species assumed): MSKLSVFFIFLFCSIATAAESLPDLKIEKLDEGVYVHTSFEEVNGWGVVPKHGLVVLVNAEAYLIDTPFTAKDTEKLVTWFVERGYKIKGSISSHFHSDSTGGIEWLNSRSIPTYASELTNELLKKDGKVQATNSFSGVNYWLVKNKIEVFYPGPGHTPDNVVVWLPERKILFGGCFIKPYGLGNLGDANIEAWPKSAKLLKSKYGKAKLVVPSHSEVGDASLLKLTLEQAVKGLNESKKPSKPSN
SMILES,IC50 (IMP-1) [pM],IC50 (NDM-1) [pM],"Efflux ratio [1, 7]","P. aeruginosa expressing IMP-1, efflux − (MB9799) MITC95 [2] [µM]",Serratia marcescens MITC95 [3] [µM],Escherichia coli MITC95 [4] [µM],Klebsiella pneumoniae MITC95 [5] [µM],"IC50 (VIM-1; VIM-1 IC50, fluorescence assay) [pM]","P. aeruginosa expressing IMP-1, efflux + (MB9798) MITC95 [6] [µM]","Efflux ratio [1, 8]",Concentration of metallo-β-lactamase inhibitor which restores susceptibility of efflux − (MB9799) strain to imipenem [2],IC50 (VIM-1; [9]) [pM],Concentration of metallo-β-lactamase inhibitor which restores susceptibility of efflux + (MB9798) strain to imipenem [6],Serratia marcescens expressing IMP-1 (CL5741) MITC95 [3] [µM],Escherichia coli expressing NDM-1 (CLB30016) MITC95 [4] [µM],Klebsiella pneumoniae expressing VIM-1 (IHMA599644) MITC95 [5] [µM]
"NCCNS(=O)(=O)c1ccc(-c2cccc3[nH]c([C@H](N)CO)nc23)c(-c2nn[nH]n2)c1S(N)(=O)=O [Example 330, (S)-4-(2-(1-amino-2-hydroxyethyl)-1H-benzo[d]imidazol-4-yl)-N1-(2-aminoethyl)-3-(2H-tetrazol-5-yl)benzene-1,2-disulfonamide]",2760,294,1.00,1.563,1.563,3.125,3.125,308,1.563,–,–,–,–,–,–,–
"NCc1nc2cc(-c3ccc(S(=O)(=O)NC[C@H](O)CN)c(S(N)(=O)=O)c3-c3nn[nH]n3)ccc2[nH]1 [Example 464, (R)—N1-(3-amino-2-hydroxypropyl)-4-(2-(aminomethyl)-1H-benzo[d]imidazole-5-yl)-3-(2H-tetrazol-5-yl)benzene-1,2-disulfonamide]",1840,274,–,–,1.563,0.7813,1.563,–,–,1.00,0.7813,198,0.7813,–,–,–
NC[C@H](CO)NS(=O)(=O)c1ccc(-c2ccc(N)nc2)c(-c2nn[nH]n2)c1S(N)(=O)=O [Example 408],684,421,–,–,0.7813,0.09766,3.125,–,–,1.00,1.563,394,1.563,–,–,–
NC[C@H](O)CNS(=O)(=O)c1ccc(-c2ccc3nccn3c2)c(-c2nn[nH]n2)c1S(N)(=O)=O [Example 418],834,152,–,–,0.7813,0.3906,1.563,–,–,2.00,0.7813,113,1.563,–,–,–
"C[C@H](CN)NS(=O)(=O)c1ccc(-c2cccc(N)n2)c(-c2nn[nH]n2)c1S(N)(=O)=O [Example 318, (R)—N1-(1-aminopropan-2-yl)-4-(6-aminopyridin-2-yl)-3-(2H-tetrazol-5-yl) benzene-1,2-disulfonamide]",704,158,1.00,1.563,3.125,0.7813,3.125,142,1.563,–,–,–,–,–,–,–
"Nc1nc2c(-c3ccc(S(=O)(=O)NC4CCS(=O)(=O)CC4)c(S(N)(=O)=O)c3-c3nnn[nH]3)cccc2s1 [Example 14, 4-(2-amino-1,3-benzothiazol-4-yl)-N1-(1,1-dioxidotetrahydro-2H-thiopyran-4-yl)-3-(1H-tetrazol-5-yl)benzene-1,2-disulfonamide]",173,25.5,1.00,3.125,–,–,–,–,3.125,–,–,176,–,3.125,12.5,12.5
NS(=O)(=O)c1c(S(=O)(=O)N[C@@H]2CCNC2)ccc(-c2cccc3nonc23)c1-c1nn[nH]n1 [Example 238],800,111,4.00,0.7813,–,–,–,–,3.125,–,–,65.3,–,0.7813,1.563,1.563
"Cn1c(N)nc2c(-c3ccc(S(=O)(=O)NCCCN)c(S(N)(=O)=O)c3-c3nn[nH]n3)cccc21 [Example 183, 4-(2-amino-1-methyl-1H-benzo[d]imidazol-4-yl)-N^1-(3-aminopropyl)-3-(2H-tetrazol-5-yl)benzene-1,2-disulfonamide]",338,53.9,1.00,0.7813,–,–,–,–,0.7813,–,–,110,–,0.7813,0.3906,0.7813
"Nc1nc2c(-c3ccc(S(=O)(=O)N[C@H]4CO[C@H]5[C@H]4OC[C@H]5O)c(S(N)(=O)=O)c3-c3nnn[nH]3)cccc2s1 [Example 50, 2-({[4-(2-amino-1,3-benzothiazol-4-yl)-2-sulfamoyl-3-(1H-tetrazol-5-yl)phenyl]sulfonyl}amino)-1,4:3,6-dianhydro-2-deoxy-D-allitol]",263,40.8,2.00,6.25,–,–,–,250,12.5,–,–,–,–,12.5,25,25
C[C@H](CN)NS(=O)(=O)c1ccc(-c2cccc3[nH]nnc23)c(-c2nn[nH]n2)c1S(N)(=O)=O [Example 237],120,13.4,0.50,1.563,–,–,–,–,0.7813,–,–,55.2,–,1.563,3.125,1.563
